Experimental data reported in patent publication US10710994B2, “Oxadiazole transient receptor potential channel inhibitors” (Genentech, Inc., priority 2018, dated 2020).
Read-outs that look alike come from different tables or passages of the source.

Target: human TRPA1 channel (Homo sapiens (Human), UniProt O75762)
Assay: hTRPA1 CHO Ca2+ FLIPR Tetra assay: block of cinnamaldehyde induced calcium influx
Format: cell-based
Conditions: CHO cells expressing TRPA1, Hill coefficient fixed to 1.5
Outline: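 TRPA1-expressing CHO cells loaded with calcium indicator dye (1 h 37° C, then 15 min room temperature) in HBSS/20 mM HEPES pH 7.4/0.02% BSA. IC50 from fits with fixed Hill coefficient.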

[1] = read-out: hTRPA1 IC50 10 min, 10 minutes incubation with compound before cinnamaldehyde (about EC80)
[2] = read-out: hTRPA1 IC50 90 min, 90 minutes incubation with compound before cinnamaldehyde (about EC80)
[3] = hTRPA1 IC50 90 min, 90 minutes incubation with compound before cinnamaldehyde (about EC80)
[4] = hTRPA1 IC50 10 min, 10 minutes incubation with compound before cinnamaldehyde (about EC80)

human TRPA1 channel, sequence (O75762 whole entry): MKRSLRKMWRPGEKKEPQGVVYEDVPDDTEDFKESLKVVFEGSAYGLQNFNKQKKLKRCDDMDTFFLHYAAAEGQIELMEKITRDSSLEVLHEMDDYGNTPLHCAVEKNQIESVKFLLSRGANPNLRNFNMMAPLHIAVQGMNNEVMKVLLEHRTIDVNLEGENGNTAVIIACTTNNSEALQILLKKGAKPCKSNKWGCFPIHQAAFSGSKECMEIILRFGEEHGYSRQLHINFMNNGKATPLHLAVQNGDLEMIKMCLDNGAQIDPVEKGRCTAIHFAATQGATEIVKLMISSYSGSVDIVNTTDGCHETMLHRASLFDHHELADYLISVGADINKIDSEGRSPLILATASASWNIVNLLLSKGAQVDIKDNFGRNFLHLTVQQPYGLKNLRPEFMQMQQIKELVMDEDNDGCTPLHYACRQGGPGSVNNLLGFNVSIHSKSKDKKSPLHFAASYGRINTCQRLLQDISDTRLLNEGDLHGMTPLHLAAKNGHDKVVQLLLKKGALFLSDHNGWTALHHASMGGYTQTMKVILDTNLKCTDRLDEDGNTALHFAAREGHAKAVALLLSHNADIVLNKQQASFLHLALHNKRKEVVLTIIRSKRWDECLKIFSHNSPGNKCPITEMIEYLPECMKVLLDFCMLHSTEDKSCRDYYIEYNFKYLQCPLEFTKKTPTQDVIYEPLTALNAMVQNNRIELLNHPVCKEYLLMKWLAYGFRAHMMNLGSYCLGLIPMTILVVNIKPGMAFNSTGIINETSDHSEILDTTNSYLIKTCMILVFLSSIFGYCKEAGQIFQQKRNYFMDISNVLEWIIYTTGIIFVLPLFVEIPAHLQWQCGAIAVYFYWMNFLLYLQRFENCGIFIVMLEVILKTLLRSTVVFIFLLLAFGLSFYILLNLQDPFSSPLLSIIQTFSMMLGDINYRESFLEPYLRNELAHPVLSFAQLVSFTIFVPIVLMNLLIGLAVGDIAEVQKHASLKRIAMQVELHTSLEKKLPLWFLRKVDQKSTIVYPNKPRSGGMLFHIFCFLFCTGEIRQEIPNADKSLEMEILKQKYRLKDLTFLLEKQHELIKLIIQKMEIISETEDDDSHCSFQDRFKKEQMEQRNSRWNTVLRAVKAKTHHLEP

SMILES | IC50 [1] | IC50 [2] | IC50 [3] | IC50 [4]
Cn1c(=O)c2c(ncn2Cc2nc([C@@H]3CO[C@@H](c4ccc(Cl)cc4)C3)no2)n(C)c1=O [Example 50, 7-((3-((3R,5R)-5-(4-chlorophenyl)tetrahydro-furan-3-yl)-1,2,4-oxadiazol-5-yl)methyl)-1,3-dimethyl-3,7-dihydro-1H-purine-2,6-dione] | 50.8 nM | 57 nM | – | –
Cc1nn(C)c2ncn(Cc3nc([C@@H]4CO[C@@H](c5ccc(Cl)cc5)C4)no3)c(=O)c12 (racemic) [Example 96, 1,3-dimethyl-5-[[3-[rac-(3R,5R)-5-(4-chlorophenyl)tetrahydro-furan-3-yl]-1,2,4-oxadiazol-5-yl]methyl] pyrazolo[3,4-d]pyrimidin-4-one] | – | – | 33 nM | –
O=c1c2c(ncn1Cc1nc([C@@H]3CO[C@@H](c4ccc(Cl)cc4)C3)no1)CNCC2 [Example 73, 3-((3-((3R,5R)-5-(4-chlorophenyl)tetrahydro-furan-3-yl)-1,2,4-oxadiazol-5-yl)methyl)-5,6,7,8-tetrahydropyrido [3,4-d]pyrimidin-4(3H)-one] | – | 22 nM | – | –
Cn1cnc2cnn(Cc3nc([C@@H]4CO[C@@H](c5ccc(Cl)cc5)C4)no3)c(=O)c21 [Example 57, 5-((3-((3R,5R)-5-(4-chlorophenyl)tetrahydro-furan-3-yl)-1,2,4-oxadiazol-5-yl)methyl)-3-methyl-3,5-dihydro-4H-imidazo[4,5-d] pyridazin-4-one] | 38.8 nM | 18 nM | – | –
Cn1cnc2ncn(Cc3nc([C@@H]4CO[C@@H](c5ccccc5F)C4)no3)c(=O)c21 [Example 15, 1-((3-((3R,5R)-5-(2-fluorophenyl)tetrahydro-furan-3-yl)-1,2,4-oxadiazol-5-yl)methyl)-7-methyl-1,7-dihydro-6H-purin-6-one] | 127 nM | 59 nM | – | –
Cn1nnc2ncn(Cc3nc([C@@H]4CO[C@@H](c5ccc(F)cc5)C4)no3)c(=O)c21 [Example 12, 6-((3-((3R,5R)-5-(4-fluorophenyl)tetra-hydrofuran-3-yl)-1,2,4-oxadiazol-5-yl)methyl)-1-methyl-1,6-dihydro-7H-[1,2,3]triazolo[4,5-d]pyrimidin-7-one] | 7.55 nM | 3.4 nM | – | –
Cn1nnc2cnn(Cc3nc([C@@H]4CO[C@@H](c5ccc(Cl)cc5)C4)no3)c(=O)c21 [Example 140, 5-((3-((3R,5R)-5-(4-chlorophenyl)tetrahydro-furan-3-yl)-1,2,4-oxadiazol-5-yl)methyl)-3-methyl-3,5-dihydro-4H-[1,2,3]triazolo[4,5-d]pyridazin-4-one] | 80.1 nM | 43 nM | – | –
Cc1c(=O)ncn2cnn(Cc3nc([C@@H]4CO[C@@H](c5ccc(Cl)cc5)C4)no3)c(=O)c12 [Example 47, 2-((3-((3R,5R)-5-(4-chlorophenyl)tetra-hydrofuran-3-yl)-1,2,4-oxadiazol-5-yl)methyl)-9-methyl-2H-pyrimido[1,6-d][1,2,4] triazine-1,8-dione] | 332 nM | 240 nM | – | –
Cc1nc(Br)n2ncn(Cc3nc([C@@H]4CO[C@@H](c5ccc(F)cc5)C4)no3)c(=O)c12 (racemic) [Example 90, 7-bromo-5-methyl-3-[[3-[rac-(3R,5R)-5-(4-fluorophenyl)tetrahydro-furan-3-yl]-1,2,4-oxadiazol-5-yl]methyl] imidazo[5,1-f][1,2,4] triazin-4-one] | – | – | 33 nM | –
Cn1cnc2ncn(Cc3nc([C@@H]4CO[C@@H](c5cc(F)c(F)c(F)c5)C4)no3)c(=O)c21 [Example 40, 7-methyl-1-((3-((3R,5R)-5-(3,4,5-trifluorophenyl)tetrahydrofuran-3-yl)-1,2,4-oxadiazol-5-yl)methyl)-1,7-dihydro-6H-purin-6-one] | 27.6 nM | 11 nM | – | –
Cn1cnc2nc(N)n(Cc3nc([C@@H]4CO[C@@H](c5cccc(F)c5)C4)no3)c(=O)c21 [Example 125, 2-amino-1-((3-((3R,5R)-5-(3-fluorophenyl)tetrahydrofuran-3-yl)-1,2,4-oxadiazol-5-yl)methyl)-7-methyl-1,7-dihydro-6H-purin-6-one] | 40.5 nM | 3.1 nM | – | –
Cc1cnn2nc(N)n(Cc3nc([C@@H]4CO[C@@H](c5ccc(F)cc5)C4)no3)c(=O)c12 [Example 3, 2-amino-3-((3-((3R,5R)-5-(4-fluorophenyl)tetrahydrofuran-3-yl)-1,2,4-oxadiazol-5-yl)methyl)-5-methylpyrazolo[5,1-f][1,2,4]triazin-4(3H)-one] | 5.02 nM | 1.3 nM | – | –
Cn1cnc2c(C#N)nn(Cc3nc([C@@H]4CO[C@@H](c5ccc(Cl)cc5)C4)no3)c2c1=O [Example 23, 1-((3-((3R,5R)-5-(4-chlorophenyl)tetrahydro-furan-3-yl)-1,2,4-oxadiazol-5-yl)methyl)-6-methyl-7-oxo-6,7-dihydro-1H-pyrazolo[4,3-d]pyrimidine-3-carbonitrile] | 45.7 nM | 24 nM | – | –
Cn1nnc2ncn(Cc3nc([C@@H]4CO[C@@H](c5ccc(Cl)cc5)C4)no3)c(=O)c21 [Example 16, 6-((3-((3R,5R)-5-(4-chlorophenyl)tetra-hydrofuran-3-yl)-1,2,4-oxadiazol-5-yl)methyl)-1-methyl-1,6-dihydro-7H-[1,2,3]triazolo[4,5-d]pyrimidin-7-one] | 4.9 nM | 2.7 nM | – | –
O=c1c2cccnc2cnn1Cc1nc([C@@H]2CO[C@@H](c3ccc(Cl)cc3)C2)no1 [Example 24, 6-((3-((3R,5R)-5-(4-chlorophenyl)tetrahydro-furan-3-yl)-1,2,4-oxadiazol-5-yl)methyl)pyrido[2,3-d]pyridazin-5(6H)-one] | 7.2 nM | 4.9 nM | – | –
Cc1cnn2ncn(Cc3nc([C@@H]4CO[C@@H](c5ccc6ncsc6c5)C4)no3)c(=O)c12 [Example 142, 3-((3-((3R,5R)-5-(benzo[d]thiazol-6-yl)tetrahydrofuran-3-yl)-1,2,4-oxadiazol-5-yl)methyl)-5-methylpyrazolo[5,1-f] [1,2,4]triazin-4(3H)-one] | 81.7 nM | 40 nM | – | –
Cn1cnc2nc(N)n(Cc3nc([C@@H]4CO[C@@H](c5ccc(Cl)cc5)C4)no3)c(=O)c21 [Example 71, 2-amino-1-((3-((3R,5R)-5-(4-chlorophenyl)tetrahydrofuran-3-yl)-1,2,4-oxadiazol-5-yl)methyl)-7-methyl-1,7-dihydro-6H-purin-6-one] | 18.4 nM | 1.5 nM | – | –
Cn1cnc2ncn(Cc3nc([C@@H]4CO[C@@H](c5cc(F)c(Cl)c(F)c5)C4)no3)c(=O)c21 [Example 83, 1-((3-((3R,5R)-5-(4-chloro-3,5-difluorophenyl)tetrahydrofuran-3-yl)-1,2,4-oxadiazol-5-yl)methyl)-7-methyl-1,7-dihydro-6H-purin-6-one] | – | – | 13 nM | 47.4 nM
Cn1c(=O)[nH]c2ncn(Cc3nc([C@@H]4CO[C@@H](c5ccc(Cl)cc5)C4)no3)c(=O)c21 [Example 9, 1-((3-((3R, 5R)-5-(4-chlorophenyl)-tetrahydrofuran-3-yl)-1,2,4-oxadiazol-5-yl)methyl)-7-methyl-1H-purine-6,8(7H,9H)-dione] | 40.4 nM | 11 nM | – | –
O=c1ccc2c(=O)n(Cc3nc([C@@H]4CO[C@@H](c5ccc(Cl)cc5)C4)no3)cnc2[nH]1 [Example 124, 3-((3-((3R,5R)-5-(4-chlorophenyl)tetrahydro-furan-3-yl)-1,2,4-oxadiazol-5-yl)methyl) pyrido[2,3-d]pyrimidine-4,7(3H,8H)-dione] | 12.7 nM | 16 nM | – | –
Cc1nc(N2CC(CN)C2)n2ncn(Cc3nc([C@@H]4CO[C@@H](c5ccc(Cl)cc5)C4)no3)c(=O)c12 [Example 80, 7-(3-(aminomethyl)azetidin-1-yl)-3-((3-((3R,5R)-5-(4-chlorophenyl)tetrahydro-furan-3-yl)-1,2,4-oxadiazol-5-yl)methyl)-5-methylimidazo[5,1-f] [1,2,4]triazin-4(3H)-one] | – | 180 nM | – | –
Cc1cnn2ncn(Cc3nc([C@@H]4CO[C@@H](c5ccc(Cl)cn5)C4)no3)c(=O)c12 (racemic) [Example 72, Racemic 3-((3-((3R,5R)-5-(5-chloropyridin-2-yl)tetrahydrofuran-3-yl)-1,2,4-oxadiazol-5-yl)methyl)-5-methylpyrazolo[5,1-f] [1,2,4]triazin-4(3H)-one] | – | – | 150 nM | 219 nM
Cn1cnc2ncn(Cc3nc([C@@H]4CO[C@@H](c5ccc6ccccc6c5)C4)no3)c(=O)c21 [Example 33, 7-methyl-1-((3-((3R,5R)-5-(naphthalen-2-yl)tetrahydrofuran-3-yl)-1,2,4-oxadiazol-5-yl)methyl)-1,7-dihydro-6H-purin-6-one] | 4.09 nM | 2.4 nM | – | –
Nc1nc2nccnc2n1Cc1nc([C@@H]2CO[C@@H](c3ccc(Cl)cc3)C2)no1 [Example 112, 1-((3-((3R,5R)-5-(4-chlorophenyl)tetrahydro-furan-3-yl)-1,2,4-oxadiazol-5-yl)methyl)-1H-imidazo[4,5-b] pyrazin-2-amine] | 10.8 nM | 3.8 nM | – | –
Cc1n[nH]c2ncn(Cc3nc([C@@H]4CO[C@@H](c5ccc(Cl)cc5)C4)no3)c(=O)c12 [Example 117, 5-((3-((3R,5R)-5-(4-chlorophenyl)tetrahydro-furan-3-yl)-1,2,4-oxadiazol-5-yl)methyl)-3-methyl-1,5-dihydro-4H-pyrazolo[3,4-d] pyrimidin-4-one] | 11.3 nM | 5.9 nM | – | –
